Assay results published in US10787442B2, “Modulators of indoleamine 2,3-dioxygenase” (GLAXOSMITHKLINE INTELLECTUAL PROPERTY DEVELOPMENT LIMITED, priority 2016, dated 2020).

Key:
[1] = test system: human peripheral blood mononuclear cells (PBMC); assay: PBMC cytotoxicity assay (CellTiter-Glo); format: cell-based; settings: cytotoxicity in stimulated PBMC, recorded as pCC50
[2] = Tolerability and hepatic functions in Beagle dogs, 7 day repeat oral administration; format: in vivo, Beagle dog
Source text: To understand its toxicokinetics and potential effect on hepatic functions, EXAMPLE 6 was orally dosed to Beagle dogs for 7 consecutive days.

CC(C)CN(c1ncc([C@H](C)CC(=O)O)cc1Nc1ccc(Cl)cn1)C1CCOCC1 [Example 6, (R)-3-(5-((5-chloropyridin-2-yl)amino)-6-(isobutyl(tetrahydro-2H-pyran-4-yl)amino)pyridin-3-yl)butanoic acid]
PBMC_TOX PXC50 [1]: <5.0
clinical observations ([2]; 20 mg/kg PO BID for 7 days): no clinical observations
tolerability throughout the study ([2]; 20 mg/kg PO BID for 7 days): well tolerated
Hepatic functions measured by serum ALT, AST, ALP and T-Bil levels ([2]; 20 mg/kg PO BID for 7 days, FIG. 2): in the normal variable ranges
Body weights ([2]; male and female dogs over the study, FIG. 1): constant
